Results on two compounds are retold here after US20180256561A1, “Pharmaceutical Combination” (GLAXOSMITHKLINE INTELLECTUAL PROPERTY DEVELOPMENT LIMITED, priority 2015, published 2018).

Each structure is given as a SMILES string. Where two headings read alike, the source gives them in different places. Some results are limits rather than exact numbers.

The subject of data set [1] is subjects with persistent uncontrolled asthma. Description: Randomised, double-blind, placebo-controlled parallel group study of fluticasone furoate in subjects with persistent uncontrolled asthma (8 weeks). It is filed as in vivo, human. The protocol:
In one such study, the safety and efficacy of four doses of fluticasone furoate in subjects with persistent uncontrolled asthma were evaluated. In this study, which was a randomised, double-blind, placebo-controlled, parallel group study, 598 patients received one of six treatments: fluticasone furoate (25, 50, 100 or 200 mcg) once daily, fluticasone propionate 100 mcg twice daily or placebo for 8 weeks. The primary endpoint was change from baseline in trough (pre-dose) forced expiratory volume in 1 second (FEV1) at Week 8. […] This study supports the use of fluticasone furoate (100 or 200 mcg once-daily) for the treatment of persistent uncontrolled asthma.

Data set [2] has as its system subjects with COPD. The note with it: 400 mcg and 1200 mcg once daily, 14 days; cited from earlier work.
The test system of data set [3] is subjects with COPD. The note with it: 28-day study; cited from earlier work.

Turning to `C[C@@H]1C[C@H]2[C@@H]3C[C@H](F)C4=CC(=O)C=C[C@]4(C)[C@@]3(F)[C@@H](O)C[C@]2(C)[C@@]1(OC(=O)c1ccco1)C(=O)SCF` [Compound 2, 6α,9α-difluoro-17α-[(2-furanylcarbonyl)oxy]-11β-hydroxy-16α-methyl-3-oxo-androsta-1,4-diene-17β-carbothioic acid S-fluoromethyl ester], the “increase in trough FEV1 from baseline at Week 8 relative to placebo” value in data set [1] (100 mcg once daily) and in data set [1] (200 mcg once daily) was more than 200 mL each time.
Turning to `COc1cc(NC(=O)CCN2CCC(OC(=O)Nc3ccccc3-c3ccccc3)CC2)c(Cl)cc1CNC[C@H](O)c1ccc(O)c2[nH]c(=O)ccc12` [Compound 1, biphenyl-2-ylcarbamic acid 1-[2-(2-chloro-4-{[(R)-2-hydroxy-2-(8-hydroxy-2-oxo-1,2-dihydroquinolin-5-yl)ethylamino]methyl}-5-methoxyphenylcarbamoyl)ethyl]piperidin-4-yl ester], the tolerability entry in the data set with subjects with COPD [2] and in the data set on subjects with COPD [3] was “well tolerated” each time.
